Test results reported in patent publication US7960368B2, “Bismethylene-17A carbolactones and related uses” (Everstra, Inc., priority 2008, dated 2011).
Where “and” joins values, the source holds several entries; their conditions need not be identical. Identical values can stand only once. Like-named read-outs stand apart in the source and are kept apart here.

Key:
[1] = target: T1, recombinant human progesterone receptor A (hPR-A) (Homo sapiens, UniProt P06401); experiment: Progestin receptor binding assay, hPR-A; settings: for IC50: competition with [3H]-progesterone; for hPR-A RBA: relative binding affinity, progesterone = 100
T1 sequence (P06401 1-769 isoform P06401-2): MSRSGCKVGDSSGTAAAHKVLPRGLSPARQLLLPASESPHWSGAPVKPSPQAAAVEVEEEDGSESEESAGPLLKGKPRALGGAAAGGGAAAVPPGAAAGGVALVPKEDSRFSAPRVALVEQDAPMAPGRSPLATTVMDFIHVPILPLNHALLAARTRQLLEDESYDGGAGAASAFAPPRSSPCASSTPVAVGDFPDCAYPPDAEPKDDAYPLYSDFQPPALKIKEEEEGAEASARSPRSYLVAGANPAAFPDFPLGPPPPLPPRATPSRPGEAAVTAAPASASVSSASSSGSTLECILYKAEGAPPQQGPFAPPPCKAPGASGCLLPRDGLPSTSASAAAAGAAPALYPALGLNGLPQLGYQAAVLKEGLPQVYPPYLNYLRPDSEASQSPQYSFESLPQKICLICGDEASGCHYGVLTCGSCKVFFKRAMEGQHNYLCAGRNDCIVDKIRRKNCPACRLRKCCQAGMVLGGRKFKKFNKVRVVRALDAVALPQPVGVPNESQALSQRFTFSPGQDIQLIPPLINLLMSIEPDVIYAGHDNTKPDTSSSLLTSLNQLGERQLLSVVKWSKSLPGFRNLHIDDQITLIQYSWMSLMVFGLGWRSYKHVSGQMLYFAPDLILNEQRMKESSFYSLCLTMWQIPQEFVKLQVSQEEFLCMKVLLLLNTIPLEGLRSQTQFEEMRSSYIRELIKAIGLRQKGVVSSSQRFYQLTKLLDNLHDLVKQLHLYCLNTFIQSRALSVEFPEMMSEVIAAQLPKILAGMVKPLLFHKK
Method: (§1) “No compound” controls contain DMSO/binding buffer without compound. The plates are incubated overnight at 4° C., after which solutions in the plates are aspirated and washed six times with PBS, followed by the addition of MicroScint-20 scintillation cocktail (Packard). The plates are sealed using transparent sealing tape and counted for radioactivity by use of the scintillation counter.

[2] = target: T2, recombinant human glucocorticoid receptor (rhGR) (Homo sapiens, UniProt P04150); experiment: Glucocorticoid receptor binding assay; settings: hGR IC50, competition with 10 nM [3H]dexamethasone; superscript marks the assay run
T2 sequence (P04150 1-777): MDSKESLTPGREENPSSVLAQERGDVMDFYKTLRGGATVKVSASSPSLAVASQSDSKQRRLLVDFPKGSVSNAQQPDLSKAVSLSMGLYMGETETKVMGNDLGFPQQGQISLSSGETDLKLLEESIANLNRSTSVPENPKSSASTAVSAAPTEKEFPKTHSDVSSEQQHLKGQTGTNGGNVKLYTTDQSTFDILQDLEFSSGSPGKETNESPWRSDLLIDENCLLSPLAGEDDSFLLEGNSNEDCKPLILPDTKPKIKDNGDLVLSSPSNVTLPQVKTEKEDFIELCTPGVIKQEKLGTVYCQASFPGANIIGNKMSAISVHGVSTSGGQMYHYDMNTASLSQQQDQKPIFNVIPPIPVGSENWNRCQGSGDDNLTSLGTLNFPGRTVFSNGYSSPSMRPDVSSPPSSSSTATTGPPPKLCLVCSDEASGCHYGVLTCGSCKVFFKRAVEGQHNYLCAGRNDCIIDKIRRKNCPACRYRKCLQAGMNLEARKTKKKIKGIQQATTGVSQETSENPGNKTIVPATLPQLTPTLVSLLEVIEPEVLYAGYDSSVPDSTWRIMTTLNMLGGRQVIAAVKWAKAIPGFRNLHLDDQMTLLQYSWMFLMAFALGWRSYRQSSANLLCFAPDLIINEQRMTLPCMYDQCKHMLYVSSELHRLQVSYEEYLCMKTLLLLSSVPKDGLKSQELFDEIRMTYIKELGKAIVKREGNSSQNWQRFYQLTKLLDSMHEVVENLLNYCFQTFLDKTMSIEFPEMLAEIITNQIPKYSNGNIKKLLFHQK
Method: DCC is added to the wells after incubation to separate bound and unbound radioligand using a repeater pipettor to reduce variability.
Recombinant human GR: 8.6 pmol/mg, 80 pmol/ml. • 2. KEM buffer (10 mM KPO4, pH 7.4, 0.1 mM EDTA, 20 mM Na2MoO4) • 3. KEMD buffer (KEM buffer+5 mM DTT, add DTT the day of assay) • 4. […] 5% Dextran-coated charcoal solution in DEM buffer B. Assay Method—Set Up on Ice. • 1. Dilute 4×10^−3 M CDB-3972 to 4×10^−5 M (40 μM) in KEMD for NSB. The final concentration will be 10 μM. • 2. Thaw the rhGR on ice. […] Dilute rhGR 1:5 (80 pmol/ml) to 16.0 pmol/ml in KEMD. At 25 μl/tube, the final concentration will be 400 fmol/tube in KEMD. • 3. Prepare KEMD containing 10% ethanol. Dilute the compounds to be assayed in KEMD containing 10% ethanol to the working concentrations specified in Table 3. • 4. Prepare a 40 nM solution [^3H]Dex in KEMD containing 10% ethanol. The final concentration will be 10 nM. • 5. Set up the assay in microplates. Use 3 wells for total counts (no receptor), 3 NSB, 6 total binding, and triplicate wells for each concentration of dex or CDB compound. […] Mix gently, and incubate overnight at 2-6° C.
The next morning, prechill the Jouan centrifuge with microplate rotor. Add 50 μl of 5% DCC in KEM to all but total counts using a repeater pipettor. Make sure the DCC is constantly mixed and thoroughly resuspended before adding to the wells. • 7. Mix gently in the cold room for 5 min on plate shaker. • 8. Centrifuge at 3,000 rpm in the Jouan centrifuge at 4° C. for 15 min. • 9. Keeping the plates on ice, pipet 100 μl of the supernatants into 24-well plates, add 1 ml of Microscint PS, and seal the plates. Pre-incubate the plates for 10 min in the counter, and count each well for 2 min in the TopCount.

[3] = target: T3, recombinant rat androgen receptor ligand binding domain (ARLBD) (Rattus norvegicus, UniProt P15207); experiment: Androgen receptor binding assay; settings: for IC50: superscript marks the assay run
T3 sequence (P15207 651-882 limits assumed): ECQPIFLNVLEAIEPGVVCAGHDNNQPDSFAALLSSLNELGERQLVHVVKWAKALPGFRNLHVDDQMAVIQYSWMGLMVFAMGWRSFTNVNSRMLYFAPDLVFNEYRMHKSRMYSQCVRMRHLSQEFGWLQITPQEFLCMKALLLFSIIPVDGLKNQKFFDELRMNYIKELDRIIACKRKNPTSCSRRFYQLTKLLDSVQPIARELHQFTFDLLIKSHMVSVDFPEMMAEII
Method: The relative affinity of test substances for the androgen receptor was taken as a measure of androgen antagonist activity and of the potential for anti-androgen side effects. […] Different concentrations (e.g., 10 nM, 15 nM or 30 nM) of purified recombinant ARLBD are immobilized to an OptiPlate 96-well microtiter plate (Packard) via incubation at 4° C. in 100 μl/well PBS containing ARLBD. […] “No compound” controls contain DMSO/binding buffer without compound. The plates are incubated overnight at 4° C., after which solutions in the plates are aspirated and washed six times with PBS, followed by the addition of MicroScint-20 scintillation cocktail (Packard). The plates are sealed using transparent sealing tape and counted for radioactivity by use of the scintillation counter. The data thus obtained is used to determine the IC50 values and the relative binding affinity (“RBA”) of the androgen receptor for the test compound.

[4] = target: T4, recombinant human progesterone receptor B (hPR-B) (Homo sapiens, UniProt P06401); experiment: Progestin receptor binding assay, hPR-B; settings: for IC50: competition with [3H]-progesterone; for hPR-B RBA: relative binding affinity, progesterone = 100
T4 sequence (P06401 1-933): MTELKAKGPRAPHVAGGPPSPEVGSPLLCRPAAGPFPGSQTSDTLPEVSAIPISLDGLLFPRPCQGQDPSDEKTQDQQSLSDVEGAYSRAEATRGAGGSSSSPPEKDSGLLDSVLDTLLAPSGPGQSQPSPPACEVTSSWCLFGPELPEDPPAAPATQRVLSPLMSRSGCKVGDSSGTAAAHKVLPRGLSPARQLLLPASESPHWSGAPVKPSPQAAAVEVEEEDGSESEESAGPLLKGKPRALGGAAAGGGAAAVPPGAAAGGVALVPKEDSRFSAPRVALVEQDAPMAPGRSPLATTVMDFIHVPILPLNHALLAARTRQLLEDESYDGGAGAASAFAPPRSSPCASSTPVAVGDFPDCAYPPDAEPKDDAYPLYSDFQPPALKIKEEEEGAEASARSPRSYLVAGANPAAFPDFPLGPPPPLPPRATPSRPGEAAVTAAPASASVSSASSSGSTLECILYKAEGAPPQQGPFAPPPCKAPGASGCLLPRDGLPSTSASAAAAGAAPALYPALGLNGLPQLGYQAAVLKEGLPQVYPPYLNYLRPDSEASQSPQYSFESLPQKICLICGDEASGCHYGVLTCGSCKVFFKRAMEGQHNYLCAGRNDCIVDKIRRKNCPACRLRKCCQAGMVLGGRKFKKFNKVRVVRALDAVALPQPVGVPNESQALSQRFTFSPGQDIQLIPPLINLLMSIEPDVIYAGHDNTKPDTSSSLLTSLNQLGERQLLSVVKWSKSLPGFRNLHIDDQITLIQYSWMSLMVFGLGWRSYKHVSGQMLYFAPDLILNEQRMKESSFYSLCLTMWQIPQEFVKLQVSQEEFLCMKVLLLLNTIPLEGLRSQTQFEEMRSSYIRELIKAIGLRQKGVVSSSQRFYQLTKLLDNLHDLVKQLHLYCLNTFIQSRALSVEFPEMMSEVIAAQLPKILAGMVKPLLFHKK
Method: as §1

[5] = acidic conditions such as the gastric environment; cited from earlier work
[6] = single entity tablet; cited from earlier work
[7] = various pH values; cited from earlier work
[8] = competition with 5 nM [3H]-R1881, read-out: ARLBD IC50
[9] = ARLBD IC50, competition with 5 nM [3H]-R1881

With `C[C@]12C=CC(=O)C=C1C1(CC1)CC1C2CC[C@@]2(C)C1[C@@H]1CC1[C@@]21CCC(=O)O1` (stereo partly drawn) [Compound (IVb), 6,6-ethylene-15β,16β-methylene-3-oxo-17α-pregna-1,4-diene 21,17-carbolactone] the IC50 [1] was 13.8 nM, the “hPR-A RBA” value [1] was 38% and the IC50 [2] was 87.9 nM and 121 nM. The “ARLBD RBA” value [3] was 5% and 4%, the IC50 [3, 8] was 101 nM and 108 nM and the IC50 [4] was 15.4 nM. The “hPR-B RBA” value [4] was 38%.
With `C[C@]12CCC(=O)C=C1C1(CC1)CC1C2CC[C@@]2(C)C1[C@@H]1CC1[C@@]21CCC(=O)O1` (stereo partly shown) [Compound (IVa)] the IC50 [1] was 3.5 nM, the “hPR-A RBA” value [1] was 149% and the IC50 [2] was 45.1 nM and 64 nM. For the same compound, the “ARLBD RBA” value [3] was 20% and 25%, the IC50 [3, 9] was 28 nM and 17.7 nM and the IC50 [4] was 5.1 nM. The “hPR-B RBA” value [4] was 116%.
With `C[C@@]12C(=CC(=O)C3C[C@@H]31)C1(CC1)CC1C2CC[C@@]2(C)C1[C@@H]1CC1[C@@]21CCC(=O)O1` (stereo partly drawn) [Compound (IVc), 1α,2α:15β,16β-Dimethylene-6,6-ethylene-3-oxo-17α-pregn-4-ene-21,17-carbolactone] the IC50 [1] was 6.7 nM, the “hPR-A RBA” value [1] was 78% and the IC50 [2] was 117 nM and 300 nM. The “ARLBD RBA” value [3] was 7% and 5%, the IC50 [3, 9] was 83.6 nM and 80.9 nM and the IC50 [4] was 8.3 nM. For the same compound, the “hPR-B RBA” value [4] was 71%.
With `C[C@]12CC3(CC3)C(=O)C=C1[C@@H]1CC1C1C2CC[C@@]2(C)C1[C@@H]1CC1[C@@]21CCC(=O)O1` (stereo partly drawn) [Compound (IIIe), 2,2-Ethylene-6β,7β:15β,16β-dimethylene-3-oxo-17α-pregn-4-ene-21,17-carbolactone] the IC50 [1] was greater than 1000 nM, the “hPR-A RBA” value [1] was less than 0.6% and the IC50 [2] was greater than 1000 nM. For the same compound, the “ARLBD RBA” value [3] was <0.6% and <0.5%, the IC50 [3, 8] was greater than 1000 nM and the IC50 [4] was greater than 1000 nM. For the same compound, the “hPR-B RBA” value [4] was less than 0.6%.
In the case of `C[C@]1(O)CC[C@H]2[C@@H]3CCC4=CC(=O)CCC4=C3C=C[C@@]21C` [Compound R1881, methyltrienolone, reference compound], the “ARLBD RBA” value ([3]; relative binding affinity, R1881 = 100, same assay run) is reported as 100%.
For `C[C@]12CCC(=O)C=C1[C@@H]1C[C@@H]1[C@H]1[C@@H]3[C@@H]4C[C@@H]4[C@@]4(CCC(=O)O4)[C@@]3(C)CC[C@@H]12` [Drospirenone, 6β,7β,15β,16β-dimethylene-3-oxo-17α-pregn-4-ene-21,17-carbolactone], the “hPR-A RBA” value [1] is listed as 23%, the “isomerization under acidic conditions” value [5] is listed as “undergo isomerization to a form that is inactive” and the “hPR-B RBA” value [4] is listed as 29%. For the same compound, the absolute bioavailability [6] was “about 76%” and the solubility in water [7] was “sparingly soluble”.
